Measured values reported in ChEMBL document CHEMBL5055656, “Synthesis of novel indole-thiazolidinone hybrid structures as promising scaffold with anticancer potential” (Bioorg Med Chem, 2021).
Calls of active or inactive are those of the source. The rule behind the calls is not given here.

How the values were obtained:
[1] = Selectivity index, ratio of GI50 for human HaCaT cells to GI50 for human HCT-116 cells; assay type: toxicity; details: HaCaT cells versus HCT-116 cells, read-out: RatioGI50
[2] = Selectivity index, ratio of GI50 for human HaCaT cells to GI50 for human HeLa cells; assay type: toxicity; details: HaCaT cells versus HeLa cells, read-out: RatioGI50
[3] = tested on: HeLa; assay: Cytotoxicity against human HeLa cells assessed as cell growth inhibition measured after 72 hrs by MTT assay; assay type: functional
[4] = Selectivity index, ratio of GI50 for mouse BALA/3T3 cells to GI50 for human HepG2 cells; assay type: toxicity; details: BALA/3T3 cells versus HepG2 cells, read-out: RatioGI50
[5] = Selectivity index, ratio of GI50 for human HaCaT mouse BALA/3T3 cells to GI50 for human A549 cells; assay type: toxicity; details: read-out: RatioGI50
[6] = tested on: A549; assay: Cytotoxicity against human A549 cells assessed as cell growth inhibition measured after 72 hrs by MTT assay; assay type: functional
[7] = Selectivity index, ratio of GI50 for mouse BALA/3T3 cells to GI50 for human HCT-116 cells; assay type: toxicity; details: BALA/3T3 cells versus HCT-116 cells, read-out: RatioGI50
[8] = Selectivity index, ratio of GI50 for human HaCaT cells to GI50 for human MCF7 cells; assay type: toxicity; details: HaCaT cells versus MCF7 cells, read-out: RatioGI50
[9] = Selectivity index, ratio of GI50 for human HaCaT cells to GI50 for human A549 cells; assay type: toxicity; details: HaCaT cells versus A549 cells, read-out: RatioGI50
[10] = Selectivity index, ratio of GI50 for human HaCaT cells to GI50 for human THP-1 cells
[11] = Cytotoxicity against human HaCaT cells assessed as cell growth inhibition measured after 72 hrs by MTT assay; assay type: cell-based
[12] = tested on: THP-1; assay: Cytotoxicity against human THP-1 cells assessed as cell growth inhibition measured after 72 hrs by MTT assay; assay type: functional
[13] = Selectivity index, ratio of GI50 for mouse BALA/3T3 cells to GI50 for human HeLa cells; assay type: toxicity; details: BALA/3T3 cells versus HeLa cells, read-out: RatioGI50
[14] = Cytotoxicity against human HaCaT cells assessed as cell growth inhibition at 100 uM measured after 72 hrs by MTT assay relative to control; assay type: cell-based; details: read-out: Activity
[15] = Selectivity index, ratio of GI50 for mouse BALA/3T3 cells to GI50 for human MCF7 cells; assay type: toxicity; details: BALA/3T3 cells versus MCF7 cells, read-out: RatioGI50
[16] = tested on: HepG2; assay: Cytotoxicity against human HepG2 cells assessed as cell growth inhibition measured after 72 hrs by MTT assay; assay type: functional
[17] = Cytotoxicity against mouse BALB/3T3 cells assessed as cell growth inhibition measured after 72 hrs by MTT assay; assay type: cell-based
[18] = Selectivity index, ratio of GI50 for human HaCaT cells to GI50 for human WM793 cells
[19] = tested on: MCF7; assay: Cytotoxicity against human MCF7 cells assessed as cell growth inhibition measured after 72 hrs by MTT assay; assay type: functional
[20] = Selectivity index, ratio of GI50 for mouse BALA/3T3 cells to GI50 for human WM793 cells
[21] = tested on: WM793; assay: Cytotoxicity against human WM793 cells assessed as cell growth inhibition measured after 72 hrs by MTT assay; assay type: functional
[22] = Selectivity index, ratio of GI50 for mouse BALA/3T3 cells to GI50 for human THP-1 cells
[23] = Selectivity index, ratio of GI50 for human HaCaT cells to GI50 for human HepG2 cells; assay type: toxicity; details: HaCaT cells versus HepG2 cells, read-out: RatioGI50
[24] = tested on: HCT-116; assay: Cytotoxicity against human HCT-116 cells assessed as cell growth inhibition measured after 72 hrs by MTT assay; assay type: functional
[25] = tested on: HCT-116; assay: Induction of DNA damage in human HCT-116 cells assessed as increase in olive tail moment incubated at 0.5 uM measured after 24 hrs by alkaline Comet assay; assay type: functional
[26] = tested on: HCT-116; assay: Induction of DNA damage in human HCT-116 cells assessed as increase in tail length incubated at 0.5 uM measured after 24 hrs by alkaline Comet assay; assay type: functional
[27] = tested on: BALB/3T3; assay: Induction of DNA damage in mouse BALB/3T3 cells assessed as increase in tail length incubated at 1.6 uM measured after 24 hrs by alkaline Comet assay; assay type: cell-based; details: balb/3t3, 24 h
[28] = tested on: HCT-116; assay: Induction of cell cycle arrest in human HCT-116 cells assessed as decrease in phospho-Rb expression measured after 24 hrs by Western blot analysis; assay type: functional, cell-based
[29] = tested on: HepG2; assay: Induction of DNA damage in human HepG2 cells assessed as increase in olive tail moment incubated at 0.5 uM measured after 24 hrs by alkaline Comet assay; assay type: functional
[30] = tested on: MCF7; assay: Induction of apoptosis in human MCF7 cells assessed as activation of cleaved PARP1 expression at 0.7 uM incubated for 24 hrs by Western blot analysis; assay type: functional, cell-based
[31] = tested on: HCT-116; assay: Induction of apoptosis in human HCT-116 cells assessed as activation of cleaved PARP1 expression at 0.7 uM incubated for 24 hrs by Western blot analysis; assay type: functional, cell-based
[32] = tested on: HepG2; assay: Induction of apoptosis in human HepG2 cells assessed as effect on phospho-Rb expression at 1.6 uM after 24 hrs by Western blot analysis; assay type: functional, cell-based
[33] = tested on: HepG2; assay: Induction of apoptosis in human HepG2 cells assessed as increase in Cdk2 expression at 1.6 uM after 24 hrs by Western blot analysis; assay type: functional, cell-based
[34] = tested on: HepG2; assay: Induction of apoptosis in human HepG2 cells assessed as increase in phospho-Chk2 expression at 1.6 uM after 24 hrs by Western blot analysis; assay type: functional, cell-based
[35] = tested on: HepG2; assay: Induction of DNA damage in human HepG2 cells assessed as increase in tail length incubated at 0.5 uM measured after 24 hrs by alkaline Comet assay; assay type: functional
[36] = tested on: HepG2; assay: Induction of apoptosis in human HepG2 cells assessed as increase in Bax expression at 1.6 uM after 24 hrs by Western blot analysis; assay type: functional, cell-based
[37] = tested on: BALB/3T3; assay: Induction of DNA damage in mouse BALB/3T3 cells assessed as increase in olive tail moment incubated at 1.6 uM measured after 24 hrs by alkaline Comet assay; assay type: cell-based; details: balb/3t3, 24 h
[38] = tested on: Salmon testes DNA; assay: Displacement of methyl green from salmon sperm DNA at 1 uM measured after 2 hrs by fluorescence plate reader method relative to control; assay type: cell-based; details: Salmo salar, Spermatozoa
[39] = tested on: Salmon testes DNA; assay: Displacement of methyl green from salmon sperm DNA at 10 uM measured after 2 hrs by fluorescence plate reader method relative to control; assay type: cell-based; details: Salmo salar, Spermatozoa

Row | Compound | selectivity ratio [1] | selectivity ratio [2] | GI50 [3] [µM] | selectivity ratio [4] | selectivity ratio [5] | GI50 [6] [µM] | selectivity ratio [7] | selectivity ratio [8] | selectivity ratio [9] | RatioGI50 [10] | GI50 at 72 h [11] [µM] | GI50 [12] [µM] | selectivity ratio [13] | selectivity ratio [15] | GI50 [16] [µM] | GI50 at 72 h [17] [µM] | RatioGI50 [18] | GI50 [19] [µM] | GI50 [21] [µM] | GI50 [24] [µM] | other results
1 | COC(=O)c1[nH]c2ccc(F)cc2c1/C=C1\SC(=O)NC1=O | 1.48 | 2.1 | 47.6 | 3.36 | 3.94 | 25.4 | 1.48 | 1.24 | 3.94 | 1.72 | > 100 | 45 | 2.1 | 1.24 | 29.8 | > 100 | 1.2 | 80.7 | 83.1 | 67.6 | inhibition at 72 h, 100 µM [14]: 43.4%; RatioGI50 [20]: 1.2; RatioGI50 [22]: 1.72; selectivity ratio [23]: 3.36
2 | COC(=O)c1[nH]c2ccc(F)cc2c1C=O | 0.67 | 0.67 | 100 | 0.67 | 1.49 | 44.8 | 0.67 | 0.67 | 1.49 | 8.66 | 69.3 | 7.7 | 0.67 | 0.67 | > 100 | 64 | 0.81 | > 100 | 82.5 | > 100 | RatioGI50 [20]: 0.81; RatioGI50 [22]: 8.66; selectivity ratio [23]: 0.67
3 | COc1cccc2c1C(=O)c1c(O)c3c(c(O)c1C2=O)C[C@@](O)(C(=O)CO)C[C@@H]3O[C@H]1C[C@H](N)[C@H](O)[C@H](C)O1 [DOXORUBICIN] | – | – | 0.3 | – | – | 0.6 | – | – | – | – | 0.9 | 0.6 | – | – | 0.7 | 0.6 | – | 0.4 | 0.6 | 0.6 | Activity [25]: 10.3; Activity [26]: 28.4%; Activity [27]: 15.9%; Activity [28]: Active; Activity [29]: 6.92; Activity [30]: Active; Activity [31]: Active; Activity [32]: Active; Activity [33]: Active; Activity [34]: Active; Activity [35]: 23.4%; Activity [36]: Active; Activity [37]: 5.9; Activity [38]: 29.2%; Activity [39]: 69.7%
4 | COC(=O)c1[nH]c2ccc(F)cc2c1/C=C1\SC(=O)NC1=S | 1.91 | 1.57 | 55 | 1.41 | 9.9 | 8.7 | 1.91 | 1.64 | 9.9 | 3.02 | 83.1 | 28.5 | 1.57 | 1.64 | 60.9 | 89.2 | 1.04 | 52.5 | 83.1 | 45.1 | RatioGI50 [20]: 1.04; RatioGI50 [22]: 3.02; selectivity ratio [23]: 1.41
5 | COC(=O)c1[nH]c2ccc(F)cc2c1/C=C1\SC(N)=NC1=O | 6.86 | 0.7 | 93.3 | 1.31 | 1.04 | 62.7 | 6.86 | 0.96 | 1.04 | 0.65 | > 100 | 100 | 0.7 | 0.96 | 49.8 | 30.3 | 0.66 | 67.7 | 98.6 | 9.5 | inhibition at 72 h, 100 µM [14]: 20.2%; RatioGI50 [20]: 0.66; RatioGI50 [22]: 0.65; selectivity ratio [23]: 1.31
6 | COC(=O)c1[nH]c2ccc(F)cc2c1/C=C1\NC(=S)NC1=O | 1.89 | 1.72 | 58.1 | 2.95 | 2.03 | 49.2 | 1.89 | 1.57 | 2.03 | 1.72 | > 100 | 58.3 | 1.72 | 1.57 | 33.9 | > 100 | 1.19 | 63.7 | 84.2 | 53 | inhibition at 72 h, 100 µM [14]: 43.3%; RatioGI50 [20]: 1.19; RatioGI50 [22]: 1.72; selectivity ratio [23]: 2.95
